Experimental data as given in PubChem BioAssay AID248 (DTP/NCI, 2004).
Inconclusive results and toxic doses are left out. No stated cut-off is given here; in the data, active means T/C of 150% or more; inactive means T/C below 125%. Square brackets hold non-standard residues; d marks the D form. Peptide text beside a SMILES is read from it. * marks the point of attachment. ξ: configuration not given here. Tos = Cc1ccc(S(=O)(=O)*)cc1; ξY = NC(Cc1ccc(O)cc1)C(=O)O

Test system: L1210 leukemia ip in BDF1 mice, survival T/C
Experiment: NCI In Vivo Anticancer Drug Screen. Data for tumor model L1210 Leukemia (intraperitoneal) in B6D2F1 (BDF1) mice
Conditions: endpoint: mean survival time, higher = longer survival
Summary of the method: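 Tumor was transplanted into mice, which were then dosed with test compound or vehicle alone. Survival was recorded for each group, and the treated figure was expressed relative to the control figure.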

[1] = dose: 100.0 mg/kg/injection, schedule: Q01DX001 (ip), vehicle: saline with Tween-80
[2] = dose: 200.0 mg/kg/injection, schedule: Q01DX001 (ip), vehicle: saline with Tween-80
[3] = dose: 400.0 mg/kg/injection, schedule: Q01DX001 (ip), vehicle: saline with Tween-80
[4] = dose: 100.0 mg/kg/injection, schedule: Q01DX009 (ip), vehicle: saline with Tween-80
[5] = dose: 200.0 mg/kg/injection, schedule: Q01DX009 (ip), vehicle: saline with Tween-80
[6] = dose: 400.0 mg/kg/injection, schedule: Q01DX009 (ip), vehicle: saline with Tween-80
[7] = dose: 100.0 mg/kg/injection, schedule: Q01DX009 (ip), vehicle: Klucel (hydroxypropylcellulose) (HPC)
[8] = dose: 200.0 mg/kg/injection, schedule: Q01DX009 (ip), vehicle: Klucel (hydroxypropylcellulose) (HPC)
[9] = dose: 400.0 mg/kg/injection, schedule: Q01DX009 (ip), vehicle: Klucel (hydroxypropylcellulose) (HPC)
[10] = dose: 12.5 mg/kg/injection, schedule: Q04DX003 (ip), vehicle: saline
[11] = dose: 25.0 mg/kg/injection, schedule: Q04DX003 (ip), vehicle: saline
[12] = dose: 50.0 mg/kg/injection, schedule: Q04DX003 (ip), vehicle: saline
[13] = dose: 100.0 mg/kg/injection, schedule: Q01DX001 (ip), vehicle: carboxymethylcellulose (CMC)
[14] = dose: 200.0 mg/kg/injection, schedule: Q01DX001 (ip), vehicle: carboxymethylcellulose (CMC)
[15] = dose: 400.0 mg/kg/injection, schedule: Q01DX001 (ip), vehicle: carboxymethylcellulose (CMC)
[16] = dose: 100.0 mg/kg/injection, schedule: Q01DX001 (ip), vehicle: saline
[17] = dose: 200.0 mg/kg/injection, schedule: Q01DX001 (ip), vehicle: saline
[18] = dose: 100.0 mg/kg/injection, schedule: Q04DX003 (ip), vehicle: Klucel (hydroxypropylcellulose) (HPC)
[19] = dose: 200.0 mg/kg/injection, schedule: Q04DX003 (ip), vehicle: Klucel (hydroxypropylcellulose) (HPC)
[20] = dose: 400.0 mg/kg/injection, schedule: Q04DX003 (ip), vehicle: Klucel (hydroxypropylcellulose) (HPC)
[21] = dose: 100.0 mg/kg/injection, schedule: Q04DX003 (ip), vehicle: saline with Tween-80
[22] = dose: 200.0 mg/kg/injection, schedule: Q04DX003 (ip), vehicle: saline with Tween-80
[23] = dose: 400.0 mg/kg/injection, schedule: Q04DX003 (ip), vehicle: saline with Tween-80
[24] = dose: 50.0 mg/kg/injection, schedule: Q01DX009 (ip), vehicle: Klucel (hydroxypropylcellulose) (HPC)

Measured: T/C

Cc1nc(N)[nH]c(=O)c1NC(=O)c1ccc(N)cc1
inactive: dose: 12.5 mg/kg/injection, schedule: Q04DX002 (ip), vehicle: saline with Tween-80 101 % of control | dose: 25.0 mg/kg/injection, schedule: Q04DX002 (ip), vehicle: saline with Tween-80 96 % of control | dose: 50.0 mg/kg/injection, schedule: Q04DX002 (ip), vehicle: saline with Tween-80 99 % of control

O=C(O)C1C(C(=O)O)C2(c3ccccc3)C(=O)C1(c1ccccc1)C(c1ccccc1)=C2c1ccccc1 (configuration not stated)
inactive: [1] 89 % of control | [2] 110 % of control | [3] 100 % of control

OCC(CO)(CCl)CCl
inactive: [4] 103 % of control | [5] 103 % of control | [6] 96 % of control

CC(=O)Nc1ccc(NC(=O)Nc2cccc(C(C)=O)c2)cc1
inactive: [7] 90 % of control | [8] 101 % of control | [9] 101 % of control

CCN(CC)CCCC(C)N (configuration not stated)
inactive: [10] 104 % of control | [11] 100 % of control | [12] 101 % of control

CSc1nnc2sc(=S)[nH]n12
inactive: [13] 105 % of control | [14] 90 % of control | [15] 94 % of control

NS(=O)(=O)c1ccc(N=Nc2ccc(O)c3ncccc23)cc1
inactive: [16] 101 % of control | [17] 98 % of control | dose: 400.0 mg/kg/injection, schedule: Q01DX001 (ip), vehicle: saline 98 % of control

CCOCCOCCOC(C)Oc1ccc(C(=O)OC)cc1 (configuration not stated)
inactive: dose: 100.0 mg/kg/injection, schedule: Q04DX002 (ip), vehicle: saline 99 % of control | dose: 200.0 mg/kg/injection, schedule: Q04DX002 (ip), vehicle: saline 96 % of control | dose: 400.0 mg/kg/injection, schedule: Q04DX002 (ip), vehicle: saline 89 % of control

CS(=O)(=O)c1ccc2nnnn2n1
inactive: dose: 6.25 mg/kg/injection, schedule: Q04DX003 (ip), vehicle: saline 100 % of control | [10] 103 % of control | [11] 100 % of control

CCOC(=O)C(NC(=O)NC)C(=O)OCC
inactive: [7] 98 % of control | [18] 102 % of control | [8] 93 % of control | [19] 98 % of control | [9] 102 % of control | [20] 96 % of control

CN(N)C(=O)Nc1ccccc1[N+](=O)[O-]
inactive: dose: 75.0 mg/kg/injection, schedule: Q01DX001 (ip), vehicle: carboxymethylcellulose (CMC) 96 % of control | dose: 150.0 mg/kg/injection, schedule: Q01DX001 (ip), vehicle: carboxymethylcellulose (CMC) 102 % of control

C/C(CC(O)(C(F)(F)Cl)C(F)(F)Cl)=N\O
inactive: [4] 92 % of control | [21] 107 % of control | [5] 97 % of control | [22] 93 % of control | [23] 93 % of control

NP(=O)(CCl)NC12CC3CC(CC(C3)C1)C2 (configuration not stated)
inactive: [24] 86 % of control | [7] 95 % of control | [8] 93 % of control

N#CCCN(CCC#N)c1ccc(C=O)cc1
inactive: [7] 97 % of control | [18] 111 % of control | [8] 103 % of control | [19] 93 % of control | [9] 96 % of control | [20] 98 % of control

CCCCCCCC(=O)N1C2CN3C4=C(C(=O)C(N)=C(C)C4=O)C(COC(N)=O)C3(OC)C21 (configuration not stated)
inactive: dose: 6.6 mg/kg/injection, schedule: Q01DX001 (ip), vehicle: acetone 115 % of control | dose: 9.9 mg/kg/injection, schedule: Q01DX001 (ip), vehicle: acetone 113 % of control

Cc1ccc2c(c1)C(c1ccccc1)(c1ccccc1)OC2=O
inactive: [4] 98 % of control | [5] 98 % of control | [6] 103 % of control

OCCN1CCN(c2ccccc2)CC1
inactive: [12] 104 % of control | dose: 100.0 mg/kg/injection, schedule: Q04DX003 (ip), vehicle: saline 113 % of control | dose: 200.0 mg/kg/injection, schedule: Q04DX003 (ip), vehicle: saline 102 % of control

COc1cc(-c2ccc(-[n+]3nc(-c4ccc([N+](=O)[O-])cc4)nn3-c3ccc([N+](=O)[O-])cc3)c(OC)c2)ccc1-[n+]1nc(-c2ccc([N+](=O)[O-])cc2)nn1-c1ccc([N+](=O)[O-])cc1
inactive: dose: 15.0 mg/kg/injection, schedule: Q01DX001 (ip), vehicle: carboxymethylcellulose (CMC) 89 % of control | dose: 30.0 mg/kg/injection, schedule: Q01DX001 (ip), vehicle: carboxymethylcellulose (CMC) 104 % of control | dose: 60.0 mg/kg/injection, schedule: Q01DX001 (ip), vehicle: carboxymethylcellulose (CMC) 93 % of control

O=c1cc(I)[nH]c(=O)[nH]1
inactive: dose: 73.0 mg/kg/injection, schedule: Q01DX Z (ip), vehicle: methylcellulose (MC) 100 % of control | dose: 111.0 mg/kg/injection, schedule: Q01DX Z (ip), vehicle: methylcellulose (MC) 96 % of control | dose: 165.0 mg/kg/injection, schedule: Q01DX Z (ip), vehicle: methylcellulose (MC) 102 % of control | dose: 248.0 mg/kg/injection, schedule: Q01DX Z (ip), vehicle: methylcellulose (MC) 110 % of control

Nc1ccc(C(=O)O)cn1
inactive: dose: 50.0 mg/kg/injection, schedule: Q01DX001 (ip), vehicle: saline 96 % of control | [16] 106 % of control | [17] 100 % of control

Cc1cc(O)c(CN(C)C)cc1O
inactive: dose: 75.0 mg/kg/injection, schedule: Q01DX001 (ip), vehicle: saline 103 % of control | dose: 150.0 mg/kg/injection, schedule: Q01DX001 (ip), vehicle: saline 104 % of control

N#CCCOCC(OCCC#N)C(COCCC#N)OCCC#N (configuration not stated)
inactive: dose: 50.0 mg/kg/injection, schedule: Q01DX001 (ip), vehicle: carboxymethylcellulose (CMC) 95 % of control | [13] 97 % of control | [14] 97 % of control | [15] 92 % of control

Cc1ccc(S(=O)(=O)NCC(=O)NC(Cc2ccc(O)cc2)C(=O)O)cc1 (stereo not drawn) (Tos-Gly-[ξY]-OH)
inactive: dose: 100.0 mg/kg/injection, schedule: Q01DX009 (ip), vehicle: other 105 % of control | dose: 200.0 mg/kg/injection, schedule: Q01DX009 (ip), vehicle: other 102 % of control | dose: 400.0 mg/kg/injection, schedule: Q01DX009 (ip), vehicle: other 104 % of control

CC1=NCCCN=C(C)C(C)=NCCCN=C1C.[Br][Co][Br]
inactive: dose: 25.0 mg/kg/injection, schedule: Q01DX009 (ip), vehicle: Klucel (hydroxypropylcellulose) (HPC) 100 % of control | [24] 96 % of control | [7] 95 % of control | [18] 106 % of control | [8] 110 % of control | [19] 90 % of control

CC(C)(C)C(=O)CC(=O)C(C)(C)C.CC(C)(C)C(=O)CC(=O)C(C)(C)C.CC(C)(C)C(=O)CC(=O)C(C)(C)C.CC(C)(C)C(=O)CC(=O)C(C)(C)C.[Er]
inactive: [21] 108 % of control | [22] 92 % of control | [23] 88 % of control

CNC(=O)C(CCC(=O)OC)NS(=O)(=O)c1ccc(C)cc1 (configuration not stated)
inactive: [1] 100 % of control | [4] 104 % of control | [2] 100 % of control | [5] 96 % of control | [3] 100 % of control | [6] 104 % of control

C1CCC2OC3(CC2C1)OC1CCCCC1O3 (configuration not stated)
inactive: dose: 75.0 mg/kg/injection, schedule: Q04DX002 (ip), vehicle: saline + alcohol 101 % of control | dose: 150.0 mg/kg/injection, schedule: Q04DX002 (ip), vehicle: saline + alcohol 116 % of control | dose: 300.0 mg/kg/injection, schedule: Q04DX002 (ip), vehicle: saline + alcohol 105 % of control

CCOC(=O)c1cnc(N)s1
inactive: dose: 100.0 mg/kg/injection, schedule: Q01DX001 (ip), vehicle: Klucel (hydroxypropylcellulose) (HPC) 105 % of control | dose: 200.0 mg/kg/injection, schedule: Q01DX001 (ip), vehicle: Klucel (hydroxypropylcellulose) (HPC) 98 % of control | dose: 400.0 mg/kg/injection, schedule: Q01DX001 (ip), vehicle: Klucel (hydroxypropylcellulose) (HPC) 102 % of control
